{"source": "patent US20240309016A1", "about": "“MACROCYCLIC HETEROCYCLE COMPOUNDS AND USE THEREOF” (TAKEDA PHARMACEUTICAL COMPANY LIMITED, priority 2023, published 2024)", "target": "T1, human OX2 receptor (Homo sapiens, UniProt O43614)", "T1 construct": "expressed in transfected cells", "T1 sequence (O43614 1-444)": "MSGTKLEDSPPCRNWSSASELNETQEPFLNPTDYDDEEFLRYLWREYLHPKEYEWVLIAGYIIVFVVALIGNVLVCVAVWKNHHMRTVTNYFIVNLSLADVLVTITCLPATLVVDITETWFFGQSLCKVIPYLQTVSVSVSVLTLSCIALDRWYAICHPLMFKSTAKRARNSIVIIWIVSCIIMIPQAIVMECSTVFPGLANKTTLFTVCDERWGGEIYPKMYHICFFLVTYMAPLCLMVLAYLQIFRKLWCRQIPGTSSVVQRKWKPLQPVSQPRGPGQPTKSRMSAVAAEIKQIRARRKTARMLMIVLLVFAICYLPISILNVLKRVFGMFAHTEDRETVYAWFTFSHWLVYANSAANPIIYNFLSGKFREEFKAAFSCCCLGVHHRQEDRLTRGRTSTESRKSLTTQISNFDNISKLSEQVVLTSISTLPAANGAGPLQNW", "assay": "Measurement of orexin type 2 receptor agonist activity (Experimental Example 2; Fluo-4 AM calcium fluorescence, FDSS μCELL)", "type": "cell-based", "settings": "compound at 3 μM; CHO cells expressing human OX2 receptor; DMSO = 0%, 10 nM orexin A (human) = 100%", "summary_of_the_method": "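Agonism was tested in CHO-K1 cells stably expressing human OX2 receptor (residues 1-444), loaded with Fluo-4 AM plus probenecid. Calcium fluorescence was recorded for 1 min 40 s after compound addition. Activity (%) was scaled between DMSO (0%) and 10 nM orexin A (100%) and reported at 3 μM compound.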"}
{"compound": "CS(=O)(=O)N[C@H]1CCN2C(=O)NCc3ccc(C(F)F)c(n3)Oc3cccc(c3)C[C@@H]12", "note": "[Example 8, N-[(15aS,16S)-7-(difluoromethyl)-1-oxo-2,3,15a,16,17,18-hexahydro-1H,15H-4,8-(azeno)-14,10-(metheno)pyrrolo[1,2-j][1,8,10]oxadiazacyclo-heptadecin-16-yl]methanesulfonamide]", "values": [{"measurement": "OX2R agonist activity (3 μM, %)", "result": 100, "unit": "%"}]}
{"compound": "COCS(=O)(=O)N[C@@H]1[C@@H]2Cc3cccc(c3F)Oc3nc(ccc3C)CNC(=O)N2CC1(F)F", "note": "[Example 46, 1-methoxy-N-[(15aS,16R)-17,17,20-trifluoro-7-methyl-1-oxo-2,3,15a,16,17,18-hexahydro-1H,15H-4,8-(azeno)-14,10-(metheno)pyrrolo[1,2-j][1,8,10]oxadiazacyclo-heptadecin-16-yl]methanesulfonamide]", "values": [{"measurement": "OX2R agonist activity (3 μM, %)", "result": 99, "unit": "%"}]}
{"compound": "CS(=O)(=O)N[C@@H]1[C@@H]2Cc3cccc(c3F)Oc3nc(ccc3Cl)OCC(=O)N2CC1(F)F", "note": "[Example 62, N-[(15aS,16R)-7-chloro-17,17,20-trifluoro-1-oxo-1,2,15a,16,17,18-hexahydro-15H-4,8-(azeno)-14,10-(metheno)pyrrolo[1,2-d][1,12,4]dioxazacyclo-heptadecin-16-yl]methanesulfonamide]", "values": [{"measurement": "OX2R agonist activity (3 μM, %)", "result": 102, "unit": "%"}]}
{"compound": "CCS(=O)(=O)N[C@@H]1[C@@H]2Cc3cc(F)cc(c3)Oc3nc(ccc3C)CNC(=O)N2CC1(F)F", "note": "(relative stereo) [Example 89, N-[rel-(15aS,16R)-12,17,17-trifluoro-7-methyl-1-oxo-2,3,15a,16,17,18-hexahydro-1H,15H-4,8-(azeno)-14,10-(metheno)pyrrolo[1,2-j][1,8,10]oxadiazacyclo-heptadecin-16-yl]ethanesulfonamide (optical isomer)]", "values": [{"measurement": "OX2R agonist activity (3 μM, %)", "result": 114, "unit": "%"}]}
{"compound": "CCS(=O)(=O)N[C@@H]1[C@@H]2Cc3cccc(c3F)Oc3nc(c(F)cc3Cl)CNC(=O)N2CC1(F)F", "note": "[Example 35, N-[(15aS,16R)-7-chloro-5,17,17,20-tetrafluoro-1-oxo-2,3,15a,16,17,18-hexahydro-1H,15H-4,8-(azeno)-10,14-(metheno)pyrrolo[1,2-j][1,8,10]oxadiazacyclo-heptadecin-16-yl]ethanesulfonamide]", "values": [{"measurement": "OX2R agonist activity (3 μM, %)", "result": 93, "unit": "%"}]}
{"compound": "CS(=O)(=O)N[C@@H]1[C@@H]2Cc3cccc(c3F)Oc3nc(ccc3C3CC3)CNC(=O)N2CC1(F)F", "note": "[Example 88, N-[(15aS,16R)-7-cyclopropyl-17,17,20-trifluoro-1-oxo-2,3,15a,16,17,18-hexahydro-1H,15H-4,8-(azeno)-14,10-(metheno)pyrrolo[1,2-j][1,8,10]oxadiazacyclo-heptadecin-16-yl]methanesulfonamide]", "values": [{"measurement": "OX2R agonist activity (3 μM, %)", "result": 109, "unit": "%"}]}
{"compound": "CS(=O)(=O)N[C@@H]1[C@@H]2Cc3cccc(c3)Oc3nc(ccc3C(F)F)CNC(=O)N2CC1(F)F", "note": "[Example 93, N-[(15aS,16R)-7-(difluoromethyl)-17,17-difluoro-1-oxo-2,3,15a,16,17,18-hexahydro-1H,15H-4,8-(azeno)-14,10-(metheno)pyrrolo[1,2-j][1,8,10]oxadiazacyclohepta-decin-16-yl]methanesulfonamide]", "values": [{"measurement": "OX2R agonist activity (3 μM, %)", "result": 109, "unit": "%"}]}
{"compound": "CCS(=O)(=O)N[C@@H]1[C@@H]2Cc3cccc(c3)Oc3nc(ccc3Cl)CNC(=O)N2CC1(F)F", "note": "(relative stereo) [Example 53, N-[rel-(15aR,16S)-7-chloro-17,17-difluoro-1-oxo-2,3,15a,16,17,18-hexahydro-1H,15H-4,8-(azeno)-14,10-(metheno)pyrrolo[1,2-j][1,8,10]oxadiazacyclo-heptadecin-16-yl]ethanesulfonamide (optical isomer)]", "values": [{"measurement": "OX2R agonist activity (3 μM, %)", "result": 100, "unit": "%"}]}
{"compound": "CCS(=O)(=O)N[C@H]1[C@@H](F)CN2C(=O)COc3ccc(Cl)c(n3)Cc3cccc(c3F)C[C@@H]12", "note": "[Example 72, N-[(15aS,16R,17S)-7-chloro-17,20-difluoro-1-oxo-1,2,15a,16,17,18-hexahydro-9H,15H-4,8-(azeno)-14,10-(metheno)pyrrolo[1,2-d][1,4]oxazacycloheptadecin-16-yl]ethanesulfonamide]", "values": [{"measurement": "OX2R agonist activity (3 μM, %)", "result": 104, "unit": "%"}]}
{"compound": "CCS(=O)(=O)N[C@@H]1[C@@H]2Cc3cccc(c3F)Oc3nc(ccc3C)N(C)CC(=O)N2CC1(F)F", "note": "[Example 48, N-[(15aS,16R)-17,17,20-trifluoro-3,7-dimethyl-1-oxo-2,3,15a,16,17,18-hexahydro-1H,15H-4,8-(azeno)-14,10-(metheno)pyrrolo[1,2-j][1,7,10]oxadiazacyclo-heptadecin-16-yl]ethanesulfonamide]", "values": [{"measurement": "OX2R agonist activity (3 μM, %)", "result": 67, "unit": "%"}]}
{"compound": "CS(=O)(=O)N[C@H]1CCN2C(=O)NCc3ccc(Cl)c(n3)Oc3cccc(c3)C[C@@H]12", "note": "[Example 16, N-[(15aS,16S)-7-chloro-1-oxo-2,3,15a,16,17,18-hexahydro-1H,15H-4,8-(azeno)-10,14-(metheno)pyrrolo[1,2-j][1,8,10]oxadiazacyclo-heptadecin-16-yl]methanesulfonamide]", "values": [{"measurement": "OX2R agonist activity (3 μM, %)", "result": 99, "unit": "%"}]}
{"compound": "CS(=O)(=O)N[C@@H]1[C@@H]2Cc3cccc(c3F)Oc3nc(ccc3Cl)CNC(=O)N2CC1(F)F", "note": "[Example 14, N-[(15aS,16R)-7-chloro-17,17,20-trifluoro-1-oxo-2,3,15a,16,17,18-hexahydro-1H,15H-4,8-(azeno)-14,10-(metheno)pyrrolo[1,2-j][1,8,10]oxadiazacyclo-heptadecin-16-yl]methanesulfonamide]", "values": [{"measurement": "OX2R agonist activity (3 μM, %)", "result": 99, "unit": "%"}]}
{"compound": "CCc1ccc2nc1Oc1cccc(c1F)C[C@H]1[C@@H](NS(C)(=O)=O)C(F)(F)CN1C(=O)NC2", "note": "[Example 79, N-[(15aS,16R)-7-ethyl-17,17,20-trifluoro-1-oxo-2,3,15a,16,17,18-hexahydro-1H,15H-4,8-(azeno)-14,10-(metheno)pyrrolo[1,2-j][1,8,10]oxadiazacyclo-heptadecin-16-yl]methanesulfonamide]", "values": [{"measurement": "OX2R agonist activity (3 μM, %)", "result": 102, "unit": "%"}]}
{"compound": "CCS(=O)(=O)N[C@H]1[C@@H](F)CN2C(=O)COc3ccc(Cl)c(n3)Oc3cc(ccc3F)C[C@@H]12", "note": "(relative stereo) [Example 91, N-[rel-(15aR,16S,17R)-7-chloro-11,17-difluoro-1-oxo-1,2,15a,16,17,18-hexahydro-15H-4,8-(azeno)-14,10-(metheno)pyrrolo[1,2-d][1,12,4]dioxazacyclohepta-decin-16-yl]ethanesulfonamide (optical isomer)]", "values": [{"measurement": "OX2R agonist activity (3 μM, %)", "result": 106, "unit": "%"}]}
{"compound": "CCS(=O)(=O)N[C@H]1[C@@H](F)CN2C(=O)NCc3ccc(C(F)F)c(n3)Oc3cccc(c3F)C[C@@H]12", "note": "[Example 27, N-[(15aS,16R,17S)-7-(difluoromethyl)-17,20-difluoro-1-oxo-2,3,15a,16,17,18-hexahydro-1H,15H-8,4-(azeno)-10,14-(metheno)pyrrolo[1,2-j][1,8,10]oxadiazacyclo-heptadecin-16-yl]ethanesulfonamide]", "values": [{"measurement": "OX2R agonist activity (3 μM, %)", "result": 102, "unit": "%"}]}
{"compound": "CCS(=O)(=O)N[C@H]1[C@@H](F)CN2C(=O)NCc3ccc(C)c(n3)Oc3cccc(c3)C[C@@H]12", "note": "[Example 42, N-[(15aS,16R,17S)-17-fluoro-7-methyl-1-oxo-2,3,15a,16,17,18-hexahydro-1H,15H-4,8-(azeno)-14,10-(metheno)pyrrolo[1,2-j][1,8,10]oxadiazacyclo-heptadecin-16-yl]ethanesulfonamide]", "values": [{"measurement": "OX2R agonist activity (3 μM, %)", "result": 101, "unit": "%"}]}
